{"source": "patent US20240350522A1", "about": "“HYGROMYCIN A FOR TREATMENT OF DISEASES AND INFECTIONS” (FLIGHTPATH BIOSCIENCES, INC., priority 2021, published 2024)", "key": {"[1]": {"test_system": "Streptococcus salivarius ATCC13419", "experiment": "MIC of Hyg A against S. salivarius", "assay_type": "cell-based"}, "F. nucleatum animalis": {"test_system": "F. nucleatum animalis", "experiment": "Kirby-Bauer diffusion assay", "assay_type": "cell-based, Fusobacterium nucleatum", "conditions": "for zone of inhibition at 5 µg/disc / zone of inhibition at 10 µg/disc / zone of inhibition at 20 µg/disc / zone of inhibition at 40 µg/disc: Fusobacterium nucleatum, mean (SEM), read-out: size of zone inhibition (mm); for zone of inhibition at 5 µg/disc: Hyg A 5 μg per disc; for zone of inhibition at 10 µg/disc: Hyg A 10 μg per disc; for zone of inhibition at 20 µg/disc: Hyg A 20 μg per disc; for zone of inhibition at 40 µg/disc: Hyg A 40 μg per disc", "method": "(§1) Three representatives of 6 subspecies of Fusobacterium nucleatum (F. nucleatum) for a total of 18 strains were tested in the experiment. The sub species and strains are described in Table 2.\n(§2) All strains were verified by 16S V3/V6 sequence analysis prior to use. The methods described herein were performed in an anaerobic chamber at 37° C. All media and plates were degassed prior to use.\n(§3) Hygromycin A (Hyg A) discs were prepared by solubilizing Hyg A in distilled water and sterile filtered. Clindamycin was used as a positive control. Defined amounts of hygromycin A (40, 20, 10 or 5 micrograms), clindamycin (2 micrograms) or sterile distilled water were absorbed onto Kirby-Bauer discs in a biosafety cabinet.\n(§4) An overnight culture was grown in Wilkins-Chalgren (WC) broth and back-diluted 1:10 in fresh broth. When an OD 600 reading reached 0.5, 300 μL of the log phase culture was plated onto WC agar plates. The plates were sectioned into quadrants and a Kirby-Bauer (KB) disc impregnated with a defined amount of hygromycin A was placed in each quadrant. Plates were prepared thus in triplicate and the four amounts of hygromycin A were 40, 20 10 and 5 micrograms. The same volume of culture was spread on fourth plate sectioned into six sections for three positive and three negative controls. KB discs with water served as negative controls and KB discs impregnated with 2 micrograms of clindamycin served as positive controls. […] Table 3, Table 4, Table 5, Table 6, Table 7, Table 8 show the mean size of zone inhibitions for each of the subspecies tested using increasing concentrations of hygromycin A where the standard error of mean is represented in parenthesis.\n(§5) The amount of hygromycin A was plotted against the size of the zone of inhibition for each strain tested."}, "F. nucleatum vincentii": {"test_system": "F. nucleatum vincentii", "experiment": "Kirby-Bauer diffusion assay", "assay_type": "cell-based, Fusobacterium nucleatum", "conditions": "for zone of inhibition at 5 µg/disc / zone of inhibition at 10 µg/disc / zone of inhibition at 20 µg/disc / zone of inhibition at 40 µg/disc: Fusobacterium nucleatum, mean (SEM), read-out: size of zone inhibition (mm); for zone of inhibition at 5 µg/disc: Hyg A 5 μg per disc; for zone of inhibition at 10 µg/disc: Hyg A 10 μg per disc; for zone of inhibition at 20 µg/disc: Hyg A 20 μg per disc; for zone of inhibition at 40 µg/disc: Hyg A 40 μg per disc", "method": "as §1, §2, §3, §4, §5"}, "[2]": {"test_system": "Fusobacterium nucleatum (ATCC 25586)", "experiment": "MIC of Hyg A against F. nucleatum ATCC 25586", "assay_type": "cell-based", "conditions": "ATCC25586"}, "[3]": {"test_system": "Fusobacterium nucleatum (ATCC 25586)", "experiment": "MBC of Hyg A against F. nucleatum ATCC 25586", "assay_type": "cell-based", "conditions": "for MBC: ATCC25586"}, "Treponema denticola": {"test_system": "Treponema denticola", "experiment": "MBC of Hyg A against Treponema denticola strains", "assay_type": "cell-based", "conditions": "for MBC: Treponema denticola"}}, "note": "Read-outs that look alike come from different tables or passages of the source.", "data": [{"compound": "CC(=O)[C@H]1O[C@@H](Oc2ccc(/C=C(\\C)C(=O)N[C@@H]3[C@H](O)[C@@H](O)[C@H]4OCO[C@H]4[C@@H]3O)cc2O)[C@@H](O)[C@@H]1O", "note": "[Hyg A, Hygromycin A]", "values": [{"measurement": "MIC", "setting": "[1]; Streptococcus salivarius ATCC13419, read-out: MIC", "value": 10, "unit": "µg/mL"}, {"measurement": "MIC", "setting": "[1]; Streptococcus salivarius, ATCC13419, 96 h, S. salivarius, 5% CO2, extended incubation (4 days), read-out: MIC", "value": 20, "unit": "µg/mL"}, {"measurement": "MIC", "setting": "[1]; Streptococcus salivarius, ATCC13419, S. salivarius 13419, experiment 1, read-out: MIC (μg/ml) 1", "value": 10, "unit": "µg/mL"}, {"measurement": "MIC", "setting": "[1]; Streptococcus salivarius, ATCC13419, S. salivarius 13419, experiment 2, read-out: MIC (μg/ml) 2", "value": 10, "unit": "µg/mL"}, {"measurement": "MIC", "setting": "[1]; Streptococcus salivarius, ATCC13419, S. salivarius, 5% CO2, 24 hours incubation, read-out: MIC", "value": 10, "unit": "µg/mL"}, {"measurement": "zone of inhibition at 5 µg/disc", "setting": "F. nucleatum animalis; strain 7_1", "value": 18.3, "unit": "mm"}, {"measurement": "zone of inhibition at 10 µg/disc", "setting": "F. nucleatum animalis; strain 7_1", "value": 18, "unit": "mm"}, {"measurement": "zone of inhibition at 20 µg/disc", "setting": "F. nucleatum animalis; strain 7_1", "value": 22.7, "unit": "mm"}, {"measurement": "zone of inhibition at 40 µg/disc", "setting": "F. nucleatum animalis; strain 7_1", "value": 24.3, "unit": "mm"}, {"measurement": "zone of inhibition at 5 µg/disc", "setting": "F. nucleatum animalis; strain 218A8", "value": 19.7, "unit": "mm"}, {"measurement": "zone of inhibition at 10 µg/disc", "setting": "F. nucleatum animalis; strain 218A8", "value": 21.7, "unit": "mm"}, {"measurement": "zone of inhibition at 20 µg/disc", "setting": "F. nucleatum animalis; strain 218A8", "value": 29.7, "unit": "mm"}, {"measurement": "zone of inhibition at 40 µg/disc", "setting": "F. nucleatum animalis; strain 218A8, 42 mm = assigned maximum", "value": 42, "unit": "mm"}, {"measurement": "zone of inhibition at 5 µg/disc", "setting": "F. nucleatum animalis; strain CRC 7_3 JVN3C1", "value": 0, "unit": "mm"}, {"measurement": "zone of inhibition at 10 µg/disc", "setting": "F. nucleatum animalis; strain CRC 7_3 JVN3C1", "value": 0, "unit": "mm"}, {"measurement": "zone of inhibition at 20 µg/disc", "setting": "F. nucleatum animalis; strain CRC 7_3 JVN3C1", "value": 0, "unit": "mm"}, {"measurement": "zone of inhibition at 40 µg/disc", "setting": "F. nucleatum animalis; strain CRC 7_3 JVN3C1", "value": 0, "unit": "mm"}, {"measurement": "strain sensitivity in words", "setting": "F. nucleatum animalis; strain CRC 7_3JVN3C1, 5-40 μg discs", "value": "fully resistant"}, {"measurement": "zone of inhibition at 5 µg/disc", "setting": "F. nucleatum vincentii; strain 3/1/36A2", "value": 19, "unit": "mm"}, {"measurement": "zone of inhibition at 10 µg/disc", "setting": "F. nucleatum vincentii; strain 3/1/36A2", "value": 21.3, "unit": "mm"}, {"measurement": "zone of inhibition at 20 µg/disc", "setting": "F. nucleatum vincentii; strain 3/1/36A2", "value": 24.7, "unit": "mm"}, {"measurement": "zone of inhibition at 40 µg/disc", "setting": "F. nucleatum vincentii; strain 3/1/36A2", "value": 27.7, "unit": "mm"}, {"measurement": "zone of inhibition at 5 µg/disc", "setting": "F. nucleatum vincentii; strain 215A9", "value": 0, "unit": "mm"}, {"measurement": "zone of inhibition at 10 µg/disc", "setting": "F. nucleatum vincentii; strain 215A9", "value": 0, "unit": "mm"}, {"measurement": "zone of inhibition at 20 µg/disc", "setting": "F. nucleatum vincentii; strain 215A9", "value": 0, "unit": "mm"}, {"measurement": "zone of inhibition at 40 µg/disc", "setting": "F. nucleatum vincentii; strain 215A9", "value": 0, "unit": "mm"}, {"measurement": "zone of inhibition at 5 µg/disc", "setting": "F. nucleatum vincentii; strain CC53", "value": 16.3, "unit": "mm"}, {"measurement": "zone of inhibition at 10 µg/disc", "setting": "F. nucleatum vincentii; strain CC53", "value": 21.3, "unit": "mm"}, {"measurement": "zone of inhibition at 20 µg/disc", "setting": "F. nucleatum vincentii; strain CC53", "value": 24, "unit": "mm"}, {"measurement": "zone of inhibition at 40 µg/disc", "setting": "F. nucleatum vincentii; strain CC53", "value": 27.3, "unit": "mm"}, {"measurement": "strain sensitivity in words", "setting": "F. nucleatum vincentii; strain 215A9, 5-40 μg discs", "value": "fully resistant"}, {"measurement": "MIC", "setting": "[2]; Fusobacterium nucleatum ATCC 25586, read-out: MIC", "value": "~1", "unit": "µg/mL"}, {"measurement": "MIC", "setting": "[2]; Fusobacterium nucleatum, F. nucleatum 25586, experiment 1, read-out: MIC (μg/ml) 1", "value": 1, "unit": "µg/mL"}, {"measurement": "MIC", "setting": "[2]; Fusobacterium nucleatum, F. nucleatum 25586, experiment 2, read-out: MIC (μg/ml) 2", "value": 1, "unit": "µg/mL"}, {"measurement": "MBC", "setting": "[3]; Fusobacterium nucleatum ATCC 25586, read-out: MBC", "value": "~1", "unit": "µg/mL"}, {"measurement": "MIC:MBC ratio", "setting": "[3]; F. nucleatum 25586", "value": 1.0}, {"measurement": "MBC", "setting": "[3]; Fusobacterium nucleatum, F. nucleatum 25586, experiment 1, read-out: MBC (μg/ml) 1", "value": 1, "unit": "µg/mL"}, {"measurement": "MBC", "setting": "[3]; Fusobacterium nucleatum, F. nucleatum 25586, experiment 2, read-out: MBC (μg/ml) 2", "value": 1, "unit": "µg/mL"}, {"measurement": "MIC:MBC ratio", "setting": "Treponema denticola; T. denticola 33520", "value": "0.2-1.0"}, {"measurement": "MIC:MBC ratio", "setting": "Treponema denticola; T. denticola 33521", "value": "0.3-1.0"}, {"measurement": "MIC:MBC ratio", "setting": "Treponema denticola; T. denticola 35404", "value": "0.1-1.0"}, {"measurement": "MIC:MBC ratio", "setting": "Treponema denticola; T. denticola 35405", "value": "0.2-0.4"}, {"measurement": "MIC:MBC ratio", "setting": "Treponema denticola; T. denticola ASLM", "value": "0.5-1.0"}, {"measurement": "MIC:MBC ratio", "setting": "Treponema denticola; T. denticola H1-T", "value": 1.0}, {"measurement": "MIC:MBC ratio", "setting": "Treponema denticola; T. denticola OTK", "value": "0.5-1.0"}, {"measurement": "MIC:MBC ratio", "setting": "Treponema denticola; T. denticola SP44", "value": "0.5-2.0"}, {"measurement": "MIC:MBC ratio", "setting": "Treponema denticola; T. denticola US Trep", "value": 0.5}, {"measurement": "type of effect (bactericidal/bacteriostatic)", "setting": "Treponema denticola; T. denticola strains, from MBC/MIC ratio", "value": "bactericidal"}, {"measurement": "MBC", "setting": "Treponema denticola; ATCC35404, ATCC 35404, strain most tolerant, read-out: MBC", "value": 5, "unit": "µg/mL"}, {"measurement": "MBC", "setting": "Treponema denticola; T. denticola 33520, experiment 1, read-out: MBC (μg/ml) 1", "value": 5, "unit": "µg/mL"}, {"measurement": "MBC", "setting": "Treponema denticola; T. denticola 33520, experiment 2, read-out: MBC (μg/ml) 2", "value": 1, "unit": "µg/mL"}, {"measurement": "MBC", "setting": "Treponema denticola; T. denticola 33521, experiment 1, read-out: MBC (μg/ml) 1", "value": 0.5, "unit": "µg/mL"}]}]}
